Reference: article PMC11012124, “Synthesis of Novel Triazine-Based Chalcones and 8,9-dihydro-7H-pyrimido[4,5-b][1,4]diazepines as Potential Leads in the Search of Anticancer, Antibacterial and Antifungal Agents” (International Journal of Molecular Sciences, 2024)

Assays:
Test in all cases: cells
[1] = system: CCRF-CEM; details: Homo sapiens, 48 h; for CC50: read-out: LC50
[2] = system: HL-60(TB); details: Homo sapiens, HL-60, 48 h; for CC50: read-out: LC50
[3] = system: K-562; details: Homo sapiens, K562, 48 h; for GI50: K-562, 48 h; for CC50: read-out: LC50
[4] = system: MOLT-4; details: Homo sapiens, MOLT-4, 48 h; for CC50: read-out: LC50
[5] = system: A549/ATCC; details: Homo sapiens, A549, 48 h; for CC50: read-out: LC50
[6] = system: EKVX; details: Homo sapiens, 48 h; for CC50: read-out: LC50
[7] = system: HOP-92; details: Homo sapiens, HOP-92, 48 h; for CC50: read-out: LC50
[8] = system: NCI-H460; details: Homo sapiens, NCI-H460, 48 h; for CC50: read-out: LC50
[9] = system: NCI-H522; details: Homo sapiens, NCI-H522, 48 h; for CC50: read-out: LC50
[10] = system: COLO 205; details: Homo sapiens, COLO 205, 48 h; for CC50: read-out: LC50
[11] = system: HCC-2998; details: Homo sapiens, HCC 2998, 48 h; for CC50: read-out: LC50
[12] = system: HCT-116; details: Homo sapiens, HCT-116, 48 h; for CC50: read-out: LC50
[13] = system: HT29; details: Homo sapiens, HT-29, 48 h; for CC50: read-out: LC50
[14] = system: KM12; details: Homo sapiens, KM12, 48 h; for CC50: read-out: LC50
[15] = system: SF-268; details: Homo sapiens, SF-268, 48 h; for CC50: read-out: LC50
[16] = system: SF-539; details: Homo sapiens, SF-539, 48 h; for CC50: read-out: LC50, SF-539, 48 h
[17] = system: SNB-19; details: Homo sapiens, SNB-19, 48 h; for CC50: read-out: LC50
[18] = system: SNB-75; details: Homo sapiens, SNB-75, 48 h; for CC50: read-out: LC50
[19] = system: U251; details: Homo sapiens, U-251, 48 h; for GI50: U251, 48 h; for CC50: read-out: LC50
[20] = system: LOX IMVI; details: Homo sapiens, 48 h; for CC50: read-out: LC50, LOX IMVI, 48 h
[21] = system: M14; details: Homo sapiens, M14, 48 h; for CC50: read-out: LC50
[22] = system: SK-MEL-2; details: Homo sapiens, SK-MEL-2, 48 h; for CC50: read-out: LC50
[23] = system: SK-MEL-28; details: Homo sapiens, SK-MEL-28, 48 h; for CC50: read-out: LC50
[24] = system: SK-MEL-5; details: Homo sapiens, SK-MEL-5, 48 h; for CC50: read-out: LC50
[25] = system: UACC-257; details: Homo sapiens, UACC-257, 48 h; for CC50: read-out: LC50
[26] = system: UACC-62; details: Homo sapiens, UACC-62, 48 h; for CC50: read-out: LC50
[27] = system: OVCAR-3; details: Homo sapiens, OVCAR-3, 48 h; for CC50: read-out: LC50
[28] = system: 786-0; details: Homo sapiens, 786-0, 48 h; for CC50: read-out: LC50
[29] = system: A498; details: Homo sapiens, A498, 48 h; for CC50: read-out: LC50
[30] = system: CAKI-1; details: Homo sapiens, CAKI-1, 48 h; for CC50: read-out: LC50
[31] = system: SN12C; details: Homo sapiens, 48 h; for CC50: read-out: LC50
[32] = system: UO-31; details: Homo sapiens, UO-31, 48 h; for CC50: read-out: LC50
[33] = system: PC-3; details: Homo sapiens, PC-3, 48 h; for CC50: read-out: LC50
[34] = system: MDA-MB-231/ATCC; details: Homo sapiens, MDA-MB-231, 48 h; for CC50: read-out: LC50
[35] = system: HS 578T; details: Homo sapiens, 48 h; for CC50: read-out: LC50
[36] = system: T-47D; details: Homo sapiens, T47D, 48 h; for CC50: read-out: LC50
[37] = system: MDA-MB-468; details: Homo sapiens, MDA-MB-468, 48 h; for CC50: read-out: LC50

## COc1cc(C2CC(c3ccc(Cl)cc3)=Nc3c(N)nc(N)nc3N2)ccc1Oc1nc(Nc2ccc(F)cc2)nc(N(C)C)n1 (centres unmarked) [29e]
[1]
  CC50: > 100 µM
[2]
  GI50: 44.7 µM
  CC50: > 100 µM
[3]
  GI50: 4.5 µM
  CC50: > 100 µM
[4]
  GI50: 8.54 µM
  CC50: > 100 µM
[5]
  GI50: > 100 µM
  CC50: > 100 µM
[6]
  GI50: > 100 µM
  CC50: > 100 µM
[7]
  GI50: 3 µM
  CC50: > 100 µM
[8]
  GI50: 42.3 µM
  CC50: > 100 µM
[9]
  GI50: > 100 µM
  CC50: > 100 µM
[10]
  GI50: > 100 µM
  CC50: > 100 µM
[11]
  GI50: 45.3 µM
  CC50: > 100 µM
[12]
  GI50: 12.5 µM
  CC50: > 100 µM
[13]
  GI50: 29.4 µM
  CC50: > 100 µM
[14]
  GI50: 40.1 µM
  CC50: > 100 µM
[15]
  GI50: > 100 µM
  CC50: > 100 µM
[16]
  GI50: > 100 µM
  CC50: > 100 µM
[17]
  GI50: > 100 µM
  CC50: > 100 µM
[18]
  GI50: 3.24 µM
  CC50: > 100 µM
[19]
  GI50: > 100 µM
  CC50: > 100 µM
[20]
  GI50: 47.8 µM
  CC50: > 100 µM
[21]
  GI50: > 100 µM
  CC50: > 100 µM
[22]
  GI50: > 100 µM
  CC50: > 100 µM
[23]
  GI50: > 100 µM
  CC50: > 100 µM
[24]
  GI50: 17.2 µM
  CC50: > 100 µM
[25]
  GI50: > 100 µM
  CC50: > 100 µM
[26]
  GI50: > 100 µM
  CC50: > 100 µM
[27]
  GI50: > 100 µM
  CC50: > 100 µM
[28]
  GI50: > 100 µM
  CC50: > 100 µM
[29]
  GI50: > 100 µM
  CC50: > 100 µM
[30]
  GI50: 3.38 µM
  CC50: > 100 µM
[31]
  GI50: > 100 µM
  CC50: > 100 µM
[32]
  CC50: > 100 µM
[33]
  GI50: 6.16 µM
  CC50: > 100 µM
[34]
  GI50: 6.73 µM
  CC50: > 100 µM
[35]
  GI50: 84.8 µM
  CC50: > 100 µM
[36]
  GI50: > 100 µM
  CC50: > 100 µM
[37]
  GI50: 17.8 µM
  CC50: > 100 µM

## COc1cc(/C=C/C(=O)c2ccc(C)cc2)ccc1Oc1nc(NCCO)nc(N2CCOCC2)n1 [20b]
[1]
  GI50: 2.71 µM
  CC50: > 100 µM
[2]
  GI50: 2.07 µM
  CC50: > 100 µM
[3]
  GI50: 1.53 µM
  CC50: > 100 µM
[4]
  GI50: 2.09 µM
  CC50: > 100 µM
[5]
  GI50: 9.47 µM
  CC50: > 100 µM
[6]
  GI50: 3.9 µM
  CC50: > 100 µM
[7]
  GI50: 8.4 µM
  CC50: > 100 µM
[8]
  GI50: 2.2 µM
  CC50: > 100 µM
[9]
  GI50: 1.56 µM
[10]
  GI50: 2.64 µM
  CC50: > 100 µM
[11]
  GI50: 2.08 µM
[12]
  GI50: 1.73 µM
[13]
  GI50: 1.85 µM
[14]
  GI50: 1.85 µM
[15]
  GI50: 2.9 µM
  CC50: > 100 µM
[16]
  GI50: 1.88 µM
[17]
  GI50: 2.45 µM
  CC50: > 100 µM
[18]
  GI50: > 100 µM
  CC50: > 100 µM
[19]
  GI50: 1.62 µM
[20]
  GI50: 0.43 µM
  CC50: 4.09 µM
[21]
  GI50: 2.03 µM
  CC50: > 100 µM
[22]
  GI50: 8.17 µM
  CC50: > 100 µM
[23]
  GI50: 2.5 µM
  CC50: > 100 µM
[24]
  GI50: 2 µM
[25]
  GI50: 3.98 µM
  CC50: > 100 µM
[26]
  GI50: 2.01 µM
[27]
  GI50: 2.49 µM
  CC50: > 100 µM
[28]
  GI50: 2.18 µM
  CC50: > 100 µM
[29]
  GI50: > 100 µM
  CC50: > 100 µM
[30]
  GI50: 5.02 µM
  CC50: > 100 µM
[31]
  GI50: 2.35 µM
  CC50: > 100 µM
[32]
  GI50: 1.49 µM
[33]
  GI50: 2.53 µM
  CC50: > 100 µM
[34]
  GI50: 2.98 µM
  CC50: > 100 µM
[35]
  GI50: 4.6 µM
  CC50: > 100 µM
[36]
  GI50: 2.98 µM
  CC50: > 100 µM
[37]
  GI50: 1.98 µM

## CN(C)c1nc(NCCNS(=O)(=O)c2ccc(C(=O)/C=C/c3ccc(Cl)cc3)cc2)nc(Nc2ccc(F)cc2)n1 [24e]
[1]
  GI50: 3.75 µM
  CC50: > 100 µM
[2]
  GI50: 4.39 µM
  CC50: > 100 µM
[3]
  GI50: 3.29 µM
  CC50: > 100 µM
[4]
  GI50: 3.07 µM
  CC50: > 100 µM
[5]
  GI50: 4.52 µM
  CC50: 17.4 µM
[6]
  GI50: 3.11 µM
  CC50: 14.7 µM
[7]
  GI50: 3.83 µM
  CC50: 14.7 µM
[8]
  GI50: 3.38 µM
  CC50: 13.8 µM
[9]
  GI50: 7.1 µM
  CC50: 22 µM
[10]
  GI50: 5.96 µM
  CC50: 18.7 µM
[11]
  GI50: 2.48 µM
  CC50: 6.9 µM
[12]
  GI50: 1.66 µM
  CC50: 3.11 µM
[13]
  GI50: 2.15 µM
  CC50: 5.72 µM
[14]
  GI50: 2.97 µM
  CC50: 9.1 µM
[15]
  GI50: 6.21 µM
  CC50: 23.5 µM
[16]
  GI50: 10.1 µM
  CC50: 22 µM
[17]
  GI50: 9.18 µM
  CC50: 21.3 µM
[18]
  GI50: 5.6 µM
  CC50: 25.7 µM
[19]
  GI50: 5.25 µM
  CC50: 18.6 µM
[20]
  GI50: 2.74 µM
  CC50: 9.16 µM
[21]
  GI50: 4.14 µM
  CC50: 15.3 µM
[22]
  GI50: 5.47 µM
  CC50: 19.5 µM
[23]
  GI50: 6.77 µM
  CC50: 20.1 µM
[24]
  GI50: 5.89 µM
  CC50: 18.8 µM
[25]
  GI50: 8.36 µM
  CC50: 21.8 µM
[26]
  GI50: 5.41 µM
  CC50: 18.7 µM
[27]
  GI50: 3.16 µM
  CC50: 11.9 µM
[28]
  GI50: 7.28 µM
  CC50: 20.2 µM
[29]
  GI50: 10.5 µM
  CC50: 23.1 µM
[30]
  GI50: 4.93 µM
  CC50: 19.5 µM
[31]
  GI50: 3.79 µM
  CC50: 15.9 µM
[32]
  GI50: 4 µM
  CC50: 16.6 µM
[33]
  GI50: 3.74 µM
  CC50: 14.1 µM
[34]
  GI50: 4.72 µM
  CC50: 17.4 µM
[35]
  GI50: 11.4 µM
  CC50: 58.1 µM
[36]
  GI50: 4.37 µM
  CC50: 18 µM
[37]
  GI50: 3.71 µM
  CC50: 14.8 µM
